# Experimental data reported in patent US20120129842A1, “BISTHIAZOLE INHIBITORS OF PRO-MATRIX METALLOPROTEINASE ACTIVATION” (priority 2010, published 2012).
# Legend:
# [1] = test system: SCW-induced arthritis; test: Efficacy in rats with SCW-induced arthritis (ankle thickness, clinical scores); format: in vivo, rat; conditions: 5, 20, 50 mg/kg BID oral
# Description: A polyarthritis can be induced in female Lewis rats following i.p. administration of streptococcal cell wall (SCW) […] (PG-PS) (J Exp Med 1977; 146:1585-1602). The model has an acute phase (days 3-7) that is complement and neutrophil-dependent and that resolves. A chronic erosive phase begins at about day ten and is dependent on the development of specific T cell immunity to the PG-GS, which resists digestion and remains present in synovial macrophages for months. Like rheumatoid arthritis, SCW-induced arthritis is reduced by TNF inhibitors, and the dependence of SCW-induced arthritis on macrophages (Rheumatology; 2001; 40:978-987) and the strong association of rheumatoid arthritis severity with synovial-tissue macrophage counts (Ann Rheum Dis; 2005; 64:834-838) makes SCW-arthritis an attractive model for testing potential therapeutic agents. SCW PG-PS 10S (Beckton Dickinson Cat#210866) suspended in saline was vortexed for 30 seconds and sonicated for 3 min with a probe type sonicator prior to injection. […]
# To induce arthritis, Female Lewis (LEW/N) rats, 5-6 weeks of age (80-100 g) were injected (i.p.) with SCW PG-PS as described above. […] Each ankle was measured 3 times and averaged, and treatment groups were randomized based on ankle thickness (Table 6). […]
# [2] = biological target: T1, full-length proMMP9(1-707) (SEQ ID NO:1) (Homo sapiens, UniProt P14780, R574P); test: proMMP9/MMP3 P126 Activation Assay; format: biochemical; conditions: 20 nM proMMP9, 20 nM MMP3, 80 min 37° C.
# T1 construct: made in house; host or cells: HEK293 (proMMP9, secreted); E. coli (MMP3)
# T1 sequence (P14780 20-707 R574P): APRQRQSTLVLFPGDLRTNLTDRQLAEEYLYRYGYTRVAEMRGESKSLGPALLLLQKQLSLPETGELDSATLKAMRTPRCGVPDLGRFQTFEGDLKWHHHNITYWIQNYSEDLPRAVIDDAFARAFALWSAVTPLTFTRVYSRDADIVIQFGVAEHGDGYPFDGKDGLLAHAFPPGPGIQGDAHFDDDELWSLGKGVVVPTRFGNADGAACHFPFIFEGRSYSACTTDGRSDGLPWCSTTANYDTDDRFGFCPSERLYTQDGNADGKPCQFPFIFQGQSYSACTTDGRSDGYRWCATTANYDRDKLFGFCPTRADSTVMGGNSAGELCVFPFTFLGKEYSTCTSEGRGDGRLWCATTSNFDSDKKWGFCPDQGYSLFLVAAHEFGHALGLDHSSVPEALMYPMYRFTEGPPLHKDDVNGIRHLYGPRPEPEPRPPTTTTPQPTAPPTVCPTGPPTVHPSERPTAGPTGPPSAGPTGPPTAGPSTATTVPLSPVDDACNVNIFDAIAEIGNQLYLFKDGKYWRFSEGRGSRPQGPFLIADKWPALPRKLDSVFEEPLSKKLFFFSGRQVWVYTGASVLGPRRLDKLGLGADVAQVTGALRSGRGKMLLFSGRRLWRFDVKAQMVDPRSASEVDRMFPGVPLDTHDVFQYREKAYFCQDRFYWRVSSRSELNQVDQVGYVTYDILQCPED
# Description: The reaction volume was 50 μL. […] Reactivity of residual MMP3 towards P-126 substrate was minimal under these conditions.
# [3] = biological target: T2, proMMP13(1-268) (SEQ ID NO:7) (Homo sapiens, UniProt P45452); test: ThermoFluor binding assay with proMMP13(1-268); set-up: 6xHis (C); made in house; conditions: pH 7.0
# How it was run: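 Thermal shift binding with 3.5 μM protein and 25 μM 1,8-ANS in 50 mM HEPES pH 7.0, 100 mM NaCl, 0.001% Tween-20, 2.5 mM MgCl2, 300 μM CaCl2. Samples were heated 40 to 90 °C at 1 °C/min, fluorescence read at 500 nm. Tm shifts across an 11-point DMSO dilution series were fitted with DSC-derived thermodynamic parameters.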
# [4] = biological target: T2, proMMP13(1-268) (SEQ ID NO:7); test: ProMMP13/Plasmin P126 Activation Assay; format: biochemical; set-up: 6xHis (C); made in house; host or cells: HEK293 (transient, secreted); conditions: 8 nM proMMP13, 16 nM plasmin, 40 min 37° C.
# Description: On the day of assay, proMMP13(1-268) (SEQ ID NO:7) purified from HEK293 cells and plasmin were diluted to 160 nM and 320 nM, respectively, in assay buffer. The reaction volume was 50 μL. […] The plate was sealed and incubated for 40 min at 37° C. […] Plasmin was not reactive towards P-126 substrate under these conditions.
smiles,measurement,setting,value
"Cc1nc(C)c(-c2csc(Nc3cc(S(N)(=O)=O)ccc3OC(C)C)n2)s1 [Example 64, 3-(2′,4′-Dimethyl-[4,5′]bithiazolyl-2-ylamino)-4-isopropoxy-benzenesulfonamide.HBr]","ankle thickness measurements, effect of treatment",[1]; Day 18-26,dose-dependent decrease in ankle thickness measurements
same,"clinical score measurements, effect of treatment",[1]; significant effects emerging at 20 mg/kg,dose dependent decrease in clinical score measurements
same,IC50,[2],180 nM
same,Kd,[3],140 nM
same,IC50,[4],3300 nM
